Results from patent US9566344B2, “Dasatinib and nonlinear configuration polyethylene glycol conjugate” (priority 2013, dated 2017).
Where “and” joins values, the source holds several entries; their conditions need not be identical. Equal entries are not always repeated.

What was measured:
[1] = test system: K562 human chronic myeloid leukemia subcutaneous xenograft; test: Antitumor effect in subcutaneous tumor model of K562 human chronic myeloid leukemia; format: in vivo, NOD/SCID mice
Description: K562 cells were inoculated subcutaneously on the right back of NOD/SCID mice to establish human chronic myeloid leukemia subcutaneous xenograft animal model. When the mean tumor volume reached 130 mm^3, the mice used in the experiment were divided into groups and there were 8 mice in each group, then the mice were injected intravenously twice a week. The therapeutic efficiency was evaluated based on the relative tumor proliferation rate (T/C %).
K562 cell line was cultured in vitro in RPMI-1640 medium supplemented with fetal bovine serum with a volume ratio of 10% and L-glutamine (2 mM) at 37 with the air containing CO2 with a proportion of 5%. The tumor cells were routinely passaged twice a week. The tumor cells in the exponential growth phase were collected and suspended in the mixture formed by PBS and matirgel with an equal volume, and then placed on ice for inoculation of tumor cells.
5×10^6 of K562 cells were inoculated subcutaneously on the right back of the mice used in the experiment, the tumor growth was observed regularly, and stochastic grouping of the mice according to tumor size and body weight in mice and pharmacotherapy were carried out when the mean volume of the tumor reached 130 mm^3.
In this study all the operations related to operating, nursing and treatment were undertaken according to the handbook approved by Association for Assessment and Accreditation of Laboratory Animal Care (AAALAC). […] In everyday observation, the influence of tumor growth on animal normal behaviors (such as exercise, eating, drinking, change of weight, eyes, hair) and any other abnormalities were noticed. Death and clinical symptoms of animals in each group were recorded.
Throughout the experiment, the weight and tumor size of mice were measured twice a week. The computational formula of tumor size was as follows: tumor volume (mm^3)=0.5×(long diameter of tumor x short diameter of tumor^2). According to the tumor size in experimental groups and control group, RTV and T/C ratio were calculated. RTV is the relative tumor volume. T/C ratio is the percentage ratio of relative tumor volumes in the treatment group and the control group at a time point after finish of treatment, and reflects the antitumor pharmacodynamic actions of the different treatment groups.

[2] = test system: PC-3 human prostate cancer subcutaneous xenograft; test: Pharmacodynamics in subcutaneous tumor model of PC-3 human prostate cancer; format: in vivo, Balb/c nude mice; conditions: PC-3 xenograft; for T/C (%) relative tumor proliferation rate / Relative tumor volume (x ± SE) / Tumor volume (x ± SE) / Effect on tumor growth compared with the solvent control group (in words): 10 mg/kg; for Effect on tumor growth compared with the solvent control group (in words): p values less than 0.01; for Anti-tumor effect compared with dasatinib (in words): same dose 10 mg/kg, 25th day
Description: PC-3 cells were inoculated subcutaneously on the right back of Balb/c nude mice to establish human prostate cancer subcutaneous xenograft animal model. When the mean tumor volume reached 160 mm^3, the mice used in the experiment were divided into groups and there were 8 mice in each group, the mice were injected intravenously twice a week. The therapeutic efficiency was evaluated based on the relative tumor proliferation rate (T/C %).
PC-3 cell line was cultured in vitro in Ham's F12K medium supplemented with fetal bovine serum with a volume ratio of 10% and L-glutamine (2 mM) at 37 with the air containing CO2 with a proportion of 5%, the tumor cells were routinely passaged twice a week. The tumor cells in the exponential growth phase were collected and suspended in the mixture formed by PBS and matirgel with an equal volume, and then placed on ice for inoculation of tumor cells.
5×10^6 of PC-3 cells were inoculated subcutaneously on the right back of the mice used in the experiment, the tumor growth weas observed regularly, and stochastic grouping of the mice according to tumor size and body weight in mice and pharmacotherapy were carried out when the mean volume of the tumor reached 160 mm^3.
In this study all the operations related to operating, nursing and treatment were undertaken according to the handbook approved by Association for Assessment and Accreditation of Laboratory Animal Care (AAALAC). […] In everyday observation, the influence of tumor growth on normal animal behaviors (such as exercise, eating, drinking, change of weight, eyes, hair) and any other abnormalities were noticed. Death and clinical symptoms of animals in each group were recorded.
Throughout the experiment, the weight and tumor size of mice were measured twice a week. The computational formula of tumor size was as follows: tumor volume (mm^3)=0.5×(long diameter of tumor×short diameter of tumor^2). According to the tumor size in experimental groups and control group, RTV and T/C ratio were calculated. RTV is the relative tumor volume. T/C ratio is the percentage ratio of relative tumor volumes in the treatment groups and the control group at a time point after finish of treatment, and reflects the antitumor pharmacodynamic actions of the different treatment groups. When the experiment was finished, the tumors were recorded by photographs in the following two ways: 1. the animals in each group were euthanized by CO2, and the tumor-bearing sides were placed upwards and taken photographs for recording by group; 2. the tumors were removed and weighed first, and T/C values (percentage ratio of tumor weights in treatment groups and the control group) were calculated, and then tumors in each group were placed in order at the same time and taken photographs for recording.

[3] = 5 mg/kg, 14th day after grouping, compared with the solvent control group
[4] = 5 mg/kg, i.v. twice a week, 14th day after grouping
[5] = 5 mg/kg, i.v. twice a week, 21st day after grouping
[6] = 5 mg/kg, i.v. twice a week, 21st day after grouping, 5 mg/kg
[7] = 5 mg/kg, injected intravenously twice a week, 14th day after grouping, 5 mg/kg
[8] = 5 mg/kg, p values less than 0.001
[9] = 22nd day after grouping, compared with the solvent control group
[10] = i.v. twice a week, 22nd day after grouping
[11] = i.v. twice a week, 25th day after grouping
[12] = injected intravenously twice a week, 22nd day after grouping
[13] = 5 mg/kg, 21st day after grouping, compared with the group using dasatinib, 5 mg/kg
[14] = 25th day after grouping, compared with the group using dasatinib
[15] = 5 mg/kg, 21st day after grouping, compared with the group using dasatinib

With `Cc1nc(Nc2ncc(C(=O)Nc3c(C)cccc3Cl)s2)cc(N2CCN(CCO)CC2)n1` [dasatinib] as the compound, how does the “T/C (%) relative tumor proliferation rate” value [1, 3] read?
Its value is 12.4%.

What about the “Relative tumor volume (x ± SE)” value [1, 4] of the same compound?
Its value is 226.9 ± 30.0.

What about the “Relative tumor volume (x ± SE)” value [1, 5] of the same compound?
Its value is 289.1 ± 46.9.

And the “Tumor volume (x ± SE)” value [1, 6]?
The value was 391 mm^3 and 391 ± 79 mm^3.

And the “Tumor volume (x ± SE)” value [1, 7]?
The value was 311 mm^3 and 311 ± 55 mm^3.

And the “Effect on tumor growth compared with the solvent control group (in words)” value [1, 8]?
The value was “statistically significant effect of anti-K562 tumor growth”.

What about the “T/C (%) relative tumor proliferation rate” value [2, 9] of the same compound?
Its value is 73%.

And the “Relative tumor volume (x ± SE)” value [2, 10]?
The value was 1148.9 ± 112.7.

What about the “Relative tumor volume (x ± SE)” value [2, 11] of the same compound?
The value was 1235.3 ± 119.6.

And the “Tumor volume (x ± SE)” value [2, 11]?
The value was 1868 mm^3 and 1868 ± 76 mm^3.

What about the “Tumor volume (x ± SE)” value [2, 12] of the same compound?
The value was 1752 mm^3 and 1752 ± 76 mm^3.

And the “Effect on tumor growth compared with the solvent control group (in words)” value [2]?
Its value is “statistically significant effect of anti-PC-3 tumor growth”.

^20k4arm -PEG-OCH2CH2OCOODS [DSN-3] was tested. Which “T/C (%) relative tumor proliferation rate” value [1, 3] did it give?
Its value is 11.8%.

And the “T/C (%) relative tumor proliferation rate” value [1, 13]?
The value was 42%.

What about the “Relative tumor volume (x ± SE)” value [1, 4] of the same compound?
Its value is 215.4 ± 41.1.

What about the “Relative tumor volume (x ± SE)” value [1, 5] of the same compound?
The value was 208 ± 37.6.

And the “Tumor volume (x ± SE)” value [1, 6]?
The value was 281 mm^3 and 281 ± 56 mm^3.

What about the “Tumor volume (x ± SE)” value [1, 7] of the same compound?
Its value is 295 mm^3 and 295 ± 68 mm^3.

And the “Effect on tumor growth compared with the solvent control group (in words)” value [1, 8]?
Its value is “statistically significant effect of anti-K562 tumor growth”.

What about the “Anti-tumor effect compared with dasatinib (in words)” value ([1]; same dose 5 mg/kg, 21st day) of the same compound?
The value was “more significant”.

What about the “T/C (%) relative tumor proliferation rate” value [2, 9] of the same compound?
Its value is 59%.

And the “T/C (%) relative tumor proliferation rate” value [2, 14]?
The value was 70%.

What about the “Relative tumor volume (x ± SE)” value [2, 10] of the same compound?
The value was 927.5 ± 96.3.

And the “Relative tumor volume (x ± SE)” value [2, 11]?
The value was 864.7 ± 74.5.

What about the “Tumor volume (x ± SE)” value [2, 11] of the same compound?
The value was 1307 mm^3 and 1307 ± 155 mm^3.

What about the “Tumor volume (x ± SE)” value [2, 12] of the same compound?
Its value is 1452 mm^3 and 1452 ± 139 mm^3.

And the “Effect on tumor growth compared with the solvent control group (in words)” value [2]?
The value was “statistically significant effect of anti-PC-3 tumor growth”.

And the “Anti-tumor effect compared with dasatinib (in words)” value [2]?
Its value is “more significant”.

Which results are given for ^20k4arm -PEG-OCH2CH2ODS [DSN-1]?
T/C (%) relative tumor proliferation rate [1, 3]: 14%; T/C (%) relative tumor proliferation rate [1, 15]: 96%; Relative tumor volume (x ± SE) [1, 4]: 254.6 ± 42.2; Relative tumor volume (x ± SE) [1, 5]: 277.5 ± 32.2; Tumor volume (x ± SE) [1, 6]: 375 mm^3 and 375 ± 89 mm^3; Tumor volume (x ± SE) [1, 7]: 349 mm^3 and 349 ± 76 mm^3; Effect on tumor growth compared with the solvent control group (in words) [1, 8]: statistically significant effect of anti-K562 tumor growth; Anti-tumor effect compared with dasatinib (in words) ([1]; same dose 5 mg/kg, 21st day): no statistically significant differences; T/C (%) relative tumor proliferation rate [2, 9]: 67%; T/C (%) relative tumor proliferation rate [2, 14]: 79%; Relative tumor volume (x ± SE) [2, 10]: 1053.2 ± 107.4; Relative tumor volume (x ± SE) [2, 11]: 975.6 ± 103.5; Tumor volume (x ± SE) [2, 11]: 1476 mm^3 and 1476 ± 118 mm^3; Tumor volume (x ± SE) [2, 12]: 1649 mm^3 and 1649 ± 142 mm^3; Effect on tumor growth compared with the solvent control group (in words) [2]: statistically significant effect of anti-PC-3 tumor growth; Anti-tumor effect compared with dasatinib (in words) [2]: more significant

What does the source list for ^20k4arm -PEG-OCH2COODS [DSN-2]?
T/C (%) relative tumor proliferation rate [1, 3]: 16%; T/C (%) relative tumor proliferation rate [1, 15]: 121%; Relative tumor volume (x ± SE) [1, 4]: 282.1 ± 46.3; Relative tumor volume (x ± SE) [1, 5]: 350.3 ± 71.9; Tumor volume (x ± SE) [1, 6]: 462 mm^3 and 462 ± 114 mm^3; Tumor volume (x ± SE) [1, 7]: 372 mm^3 and 372 ± 80 mm^3; Effect on tumor growth compared with the solvent control group (in words) [1, 8]: statistically significant effect of anti-K562 tumor growth; Anti-tumor effect compared with dasatinib (in words) ([1]; same dose 5 mg/kg, 21st day): no statistically significant differences; T/C (%) relative tumor proliferation rate [2, 9]: 71%; T/C (%) relative tumor proliferation rate [2, 14]: 88%; Relative tumor volume (x ± SE) [2, 10]: 1116.1 ± 98.2; Relative tumor volume (x ± SE) [2, 11]: 1087.1 ± 88.2; Tumor volume (x ± SE) [2, 11]: 1644 mm^3 and 1644 ± 146 mm^3; Tumor volume (x ± SE) [2, 12]: 1748 mm^3 and 1748 ± 146 mm^3; Effect on tumor growth compared with the solvent control group (in words) [2]: statistically significant effect of anti-PC-3 tumor growth; Anti-tumor effect compared with dasatinib (in words) [2]: no statistically significant difference

Which “T/C (%) relative tumor proliferation rate” value [1, 3] does the source give for ^20k4arm-PEG-OCH2CH2NHCOODS [DSN-4] here?
Its value is 8.5%.

What about the “T/C (%) relative tumor proliferation rate” value [1, 13] of the same compound?
Its value is 36%.

And the “Relative tumor volume (x ± SE)” value [1, 4]?
The value was 155.5 ± 28.5.

And the “Relative tumor volume (x ± SE)” value [1, 5]?
Its value is 161.8 ± 18.9.

What about the “Tumor volume (x ± SE)” value [1, 6] of the same compound?
The value was 219 mm^3 and 219 ± 45 mm^3.

What about the “Tumor volume (x ± SE)” value [1, 7] of the same compound?
Its value is 210 mm^3 and 210 ± 47 mm^3.

And the “Effect on tumor growth compared with the solvent control group (in words)” value [1, 8]?
The value was “statistically significant effect of anti-K562 tumor growth”.

What about the “Anti-tumor effect compared with dasatinib (in words)” value ([1]; same dose 5 mg/kg, 21st day) of the same compound?
The value was “more significant”.

And the “T/C (%) relative tumor proliferation rate” value [2, 9]?
The value was 48%.

And the “T/C (%) relative tumor proliferation rate” value [2, 14]?
Its value is 63%.

What about the “Relative tumor volume (x ± SE)” value [2, 10] of the same compound?
Its value is 754.6 ± 84.5.

And the “Relative tumor volume (x ± SE)” value [2, 11]?
Its value is 778.1 ± 82.4.

And the “Tumor volume (x ± SE)” value [2, 11]?
The value was 1177 mm^3 and 1177 ± 120 mm^3.

And the “Tumor volume (x ± SE)” value [2, 12]?
The value was 1182 mm^3 and 1182 ± 68 mm^3.

What about the “Effect on tumor growth compared with the solvent control group (in words)” value [2] of the same compound?
The value was “statistically significant effect of anti-PC-3 tumor growth”.

What about the “Anti-tumor effect compared with dasatinib (in words)” value [2] of the same compound?
The value was “more significant”.
